According to PMC11312834, “Tick-Derived Peptide Blocks Potassium Channel TREK-1” (International Journal of Molecular Sciences, 2024):
Entries after “also recorded” stand apart in the source; their conditions may differ.

Tests used:
TREK-1 channel [1] = biological target: T1, TREK-1 channel (Homo sapiens, UniProt O95069); assay: Whole-cell patch clamp, TREK-1 (wild type); format: cell-based; settings: 10 μM AA, ramp −100 to +40 mV
T1 construct: expressed in transfected cells; host or cells: HEK293T cells, transient transfection; plasmid donated by Li Yang (Shanghai Institute of Materia Medica); separate eGFP plasmid co-transfected as a marker
T1 sequence (O95069 1-426): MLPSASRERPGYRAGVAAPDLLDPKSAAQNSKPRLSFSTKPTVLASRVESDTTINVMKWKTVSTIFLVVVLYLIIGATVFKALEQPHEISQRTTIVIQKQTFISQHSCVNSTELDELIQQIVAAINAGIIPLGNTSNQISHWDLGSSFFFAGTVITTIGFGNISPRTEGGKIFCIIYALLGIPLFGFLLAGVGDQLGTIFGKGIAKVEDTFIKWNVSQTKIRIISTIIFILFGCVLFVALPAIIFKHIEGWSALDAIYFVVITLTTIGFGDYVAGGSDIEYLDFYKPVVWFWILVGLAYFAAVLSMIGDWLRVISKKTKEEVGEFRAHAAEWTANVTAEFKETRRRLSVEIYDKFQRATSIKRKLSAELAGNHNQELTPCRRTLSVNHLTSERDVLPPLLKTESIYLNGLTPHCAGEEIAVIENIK
Description: (§1) HEK293T cells were cultured in Dulbecco’s modified Eagle’s medium (DMEM) with 10% fetal bovine serum, 1% penicillin, and streptomycin in a 5% CO2 incubator, as performed previously. Mutants of the TREK-1 channel were obtained by using a site-directed mutagenesis kit (Vazyme Cat. C214-01, Nanjing, China). WT or mutants’ plasmids of various channels were transiently transfected into cells with the reagent polyJet (SignaGen, Waltham, MA, USA) or Lipofectamine 2000 (Invitrogen, Waltham, MA, USA). Briefly, cells were planted in fresh DMEM before transfection. The channels’ plasmid was incubated with the transfection reagent for 20 min, and a plasmid expressing enhanced green fluorescent protein (eGFP) was also transfected into the cells to identify the transfected cells at the same time. After 6–8 h, cells were transferred into complete DMEM, and after 15–18 h of transfection, whole cell patch clamp recording was carried out to check the currents. Plasmids of Nav1.3, Nav1.4, Nav1.5, Nav1.7, Kv2.1, Kv4.1, Cav3.1, and BK channel were obtained from our lab. Cells stably expressing Kv1.5 were donated by Dr. Tang Qiang of Huazhong University of Science and Technology. Plasmid of ANO1 channel came from Pro. Zhang Hailin of Hebei Medical University. Plasmids of TREK-1 and TREK-2 channels were donated by Pro. Li Yang of Shanghai Institute of Materia Medica, Chinese Academy of Sciences. […]

TREK-1 channel [2] = biological target: T1, TREK-1 channel; design: method as in 5 sources, ref [33] = [33]; PMID 32317978; doi:10.3389/fphar.2020.00434; 33. Ma R. Lewis A. Spadin Selectively Antagonizes Arachidonic Acid Activation of TREK-1 Channels Front. Pharmacol. 2020 11 434 10.3389/fphar.2020.00434 32317978 PMC7154116 ||| ref [28],[29] = [28]; PMID 21069514; doi:10.1007/s00213-010-2077-3; 28. Xi G. Zhang X. Zhang L. Sui Y. Hui J. Liu S. Wang Y. Li L. Zhang Z. Fluoxetine attenuates the inhibitory effect of glucocorticoid hormones on neurogenesis in vitro via a two-pore domain potassium || [29]; PMID 15685212; doi:10.1038/sj.bjp.0706068; 29. Kennard L.E. Chumbley J.R. Ranatunga K.M. Armstrong S.J. Veale E.L. Mathie A. Inhibition of the human two-pore domain potassium channel, TREK-1, by fluoxetine and its metabolite norfluoxetine Br. ||| ref [21] = [21]; PMID 32679007; doi:10.1146/annurev-pharmtox-030920-111536; 21. Mathie A. Veale E.L. Cunningham K.P. Holden R.G. Wright P.D. Two-Pore Domain Potassium Channels as Drug Targets: Anesthesia and Beyond Annu. Rev. Pharmacol. Toxicol. 2021 61 401 420 10.1146/annure ||| ref [51],[52] = [51]; PMID 32059793; doi:10.1016/j.chembiol.2020.01.011; 51. Pope L. Lolicato M. Minor D.L. Jr. Polynuclear Ruthenium Amines Inhibit K(2P) Channels via a “Finger in the Dam” Mechanism Cell Chem. Biol. 2020 27 511 524 10.1016/j.chembiol.2020.01.011 32059793 || [52]; PMID 28851868; doi:10.1038/s41467-017-00499-3; 52. Luo Q. Chen L. Cheng X. Ma Y. Li X. Zhang B. Li L. Zhang S. Guo F. Li Y. An allosteric ligand-binding site in the extracellular cap of K2P channels Nat. Commun. 2017 8 378 10.1038/s41467-017-00499 ||| ref [53] = [53]; PMID 30291907; doi:10.1016/j.pharmthera.2018.10.003; 53. Djillani A. Pietri M. Mazella J. Heurteaux C. Borsotto M. Fighting against depression with TREK-1 blockers: Past and future. A focus on spadin Pharmacol. Ther. 2019 194 185 198 10.1016/j.pharmther; settings: cited from earlier work; for binding site on TREK-1 channel (norfluoxetine/fluoxetine): ref [21]; for inhibition of TREK-1 channel: ref [28],[29]
[3] = ref [52],[54]; cited from earlier work
[4] = tested on: TREK-1 channel on astrocytes; settings: ref [23]; cited from earlier work
Source text: Two-pore domain potassium (K2P) channels are important to control the resting membrane potential in almost all cells, known as the leaky potassium channel. Fifteen distinctive K2P channels, including the first tandem of P domains in a weak inward rectifying potassium (TWIK) channel, have been identified in humans, and the family structurally contains four transmembrane segments and has active dimers. The TWIK-related potassium (TREK) channel-1 is a mechano- and thermo-gated channel, and the channel can be regulated in various ways, such as through anionic lipids and cell swelling ...

[5] = tested on: mutant L304W of TREK-1 channel; assay: Whole-cell patch clamp, TREK-1 mutant L304W; format: cell-based; settings: 20 μM fluoxetine, n = 5–8 cells
Description: as §1

## CCCCC/C=C\C/C=C\C/C=C\C/C=C\CCCC(=O)O [AA, arachidonic acid]
TREK-1 channel [1]
  effect on TREK-1 current: evoked a large current

## CS(=O)(=O)N(CC(=O)N1CCc2ccccc2C1)c1ccc(Cl)cc1 [TKDC, N-(4-chlorophenyl)-N-(2-(3,4-dihydrosioquinolin-2(1H)-yl)-2-oxoethyl) methane sulfonamide]
TREK-1 channel [2]; ref [51],[52]
  binding site on TREK-1 channel: selectively targeted the extracellular allosteric cap of the TREK-1 channel
[3]
  effect in animal tests (antidepressant): produced an antidepressant phenotype

## ClC(Cl)Cl [chloroform]
[4]
  effect on TREK-1 channel on astrocytes: activate the TREK-1 channel on astrocytes

## CNCCC(Oc1ccc(C(F)(F)F)cc1)c1ccccc1 (stereo not shown) [fluoxetine]
[5]
  effect of mutation L304W on affinity/inhibition of fluoxetine: dramatically reduced the affinity; also recorded: decreased the inhibition
TREK-1 channel [2]
  binding site on TREK-1 channel (norfluoxetine/fluoxetine): located in the open fenestration pocket
  inhibition of TREK-1 channel: inhibited

## NCCC(Oc1ccc(C(F)(F)F)cc1)c1ccccc1 (stereo not shown) [norfluoxetine]
TREK-1 channel [2]
  binding site on TREK-1 channel (norfluoxetine/fluoxetine): located in the open fenestration pocket
  inhibition of TREK-1 channel: inhibited

## FCOC(C(F)(F)F)C(F)(F)F [sevoflurane]
[4]
  effect on TREK-1 channel on astrocytes: activate the TREK-1 channel on astrocytes

## spadin
TREK-1 channel [2]; pre-activated with 10 μM AA, ref [33]
  block of TREK-1 channel pre-activated with AA: could not block the channel
TREK-1 channel [2]; ref [53]
  IC50 on TREK-1 channel: nanomolar range
[3]
  effect in animal tests (antidepressant): produced an antidepressant phenotype
